Where “and” joins values, the source holds several entries; their conditions need not be identical. Equal entries are not always repeated.
How the values were obtained:
Assay type in all cases: in vivo, human
blast cells = assay: Clinical response: morphological blast differentiation and blast counts in smears of bone marrow aspirate and/or peripheral blood, Phase I extension cohort
Source text: As part of a Phase I clinical study assessing the human pharmacokinetics and safety of ORY-1001 in acute leukemia patients, an extension cohort of 14 patients (mean age 57; range 30-78, gender 8M/6F) was opened in order to provide a preliminary assessment of efficacy. A summary of the patients recruited in this extension cohort can be found in Table 1.
Preliminary clinical efficacy endpoints included (a) morphological blast differentiation and (b) decrease in blast %. In addition, gene expression determinations of selected markers were performed.
Each patient received ORY-1001 for oral intake as a solution at a dose of 140 microgram/m2/day (as free base) q.d., during 5 consecutive days with 2 days of rest, for 4 cycles (total of 28 days), or until disease progression or unacceptable toxicity was observed.
For the evaluation of the morphological blast differentiation and blast counts, smears of bone marrow aspirate and/or peripheral blood were prepared, stained by the May-Grünwald-Giemsa method, and microscopically examined in accordance with ICSH guidelines (ICSH guidelines for the standardization of bone marrow specimens and reports, Lee S H, Erber W N, Porwit A, Tomonaga M, Peterson L C; International Council for Standardization In Hematology, International journal of laboratory hematology 2008 October; 30(5):349-64).

S100A12 [1] = assay: Gene expression by qRT-PCR in peripheral blood of acute leukemia patients; details: individual patients
S100A12 and VCAN = S100A12 and VCAN gene expression in patients developing a differentiation syndrome; details: patients developing a differentiation syndrome (Patients 01 and 09); within 98 and 168 h after the first dose
Method: (§1) An amount of 0.5 micrograms of the 1st strand product was used to perform qRT-PCR reactions in triplicate (Taqman® gene expression assay, Life technologies, see Table 3) in a Roche LightCycler®480. In order to analyze the changes in the expression levels of ANXA2, CAMSAP2, CD86, CRISP9, CTSG, GPR65, ITGAM, LY96, LYZ, S100A12, VCAN, and VIM, ΔΔCp values for a given patient and time point were calculated as described above, relative to the endogenous reference gene HPRT1 and to a control sample obtained from the same patient at pre-dose (i.e. prior to administration of the first dose of ORY-1001 to said patient).
For the analysis of the gene expression data, the time point (or time interval) showing the maximum response is typically selected. This time point/interval may change depending on the specific dose, administration scheme, etc. In the present study, all the gene expression and correlation analysis was performed by using the data obtained after administration of day 5, i.e. within the time interval between 98 and 168 h after the first dose. The maximum response observed within this time interval is referred to in the tables herein as “Maximum response (ΔΔCp) on day 5”. […]

[2] = system: S100A12, VCAN, ITGAM, LY96, ANXA2, CD86, GPR65, CRISP9, LYZ, and VIM; assay: Correlation of marker gene expression (qRT-PCR, peripheral blood) with response to ORY-1001; details: day 5
Method: as §1
(§2) For the analysis of the gene expression data, the time point (or time interval) showing the maximum response is typically selected. This time point/interval may change depending on the specific dose, administration scheme, etc. In the present study, all the gene expression and correlation analysis was performed by using the data obtained after administration of day 5, i.e. within the time interval between 98 and 168 h after the first dose. The maximum response observed within this time interval is referred to in the tables herein as “Maximum response (ΔΔCp) on day 5”.
Possible correlations between expression changes in marker genes described in table 5 and response to ORY-1001 treatment (see Table 2) were investigated.
The expression levels of Ly96 and ITGAM did additionally correlate with the variation of blast cells in bone marrow (see FIGS. 1A and 1B), particularly in M4/M5 subtypes, further supporting the utility of these marker genes in monitoring response to ORY-1001 treatment in easily accessible samples such as peripheral blood.

CAMSAP2 = assay: Gene expression by qRT-PCR in peripheral blood of acute leukemia patients; details: individual patients, within 98 and 168 h after first dose, relative to HPRT1 and pre-dose, negative = up-regulation
Method: (§3) Plasma for pharmacokinetic determinations was separated by centrifugation. The remaining cell volume was resuspended in 2 mL PBS and an aliquot of […] was stabilized in a PAXgene® Blood RNA tube as described by the vendor and kept frozen for subsequent RNA extraction and qRT-PCR.
(§4) RNA extraction was performed using PAXgene® Blood RNA Kit (PreAnalytix) as described by the vendor. RNA quality was assessed using an Agilent 2100 Bioanalyzer™ and quantity was measured using a NanoDrop™ spectrophotometer.
(§5) An amount of 0.5 micrograms of total RNA was reverse transcribed to obtain 1st strand cDNA (iScript® Reverse Transcription Supermix for RTqPCR; Bio-Rad).
(§6) Gene expression was analyzed by qRT-PCR, a variant of the PCR (Polymerase Chain Reaction) method that permits the simultaneous exponential amplification and detection of specific cDNA fragments. Taqman gene expression assays were used, which employ the principle of doubly labeled hydrolysis probes marked with a fluorescent moiety at their 5′ end and with a quencher moiety at the 3′ end, which prevents the generation of fluorescence according to the Förster energy transfer principle.
(§7) In the exponential phase of the amplification reaction, the intensity of the fluorescence is directly proportional to the quantity of PCR product formed. The LightCycler® 480 Software determines the “crossing point” (Cp), i.e. the point where the reaction's fluorescence reaches the maximum of the second derivative of the amplification curve, which corresponds to the point where the acceleration of the fluorescence signal is at its maximum. The Cp values reflect the target mRNA concentration in the original RNA sample. Differences in Cp values (ΔCp) for a gene X of interest in a given sample relative to a control sample reflect changes in mRNA concentration of the gene X in a given amount of total RNA in the respective sample, and are calculated as:
(§8) ΔΔCp, gene X=[Cp(sample, gene X)−Cp(sample, reference gene)]−[Cp(control, gene X)−Cp(control, reference gene)]
(§9) The fold change in mRNA concentration is calculated as 2^−ΔΔCp, a negative ΔΔCp representing an increase in the expression level, and vice versa.
as §1, §2

CTSG = assay: as above; details: individual patients, within 98 and 168 h after first dose, relative to HPRT1 and pre-dose, negative = up-regulation
Method: as §3, §4, §5, §6, §7, §8, §9, §1, §2

Ly96 = assay: as above; details: individual patients, within 98 and 168 h after first dose, relative to HPRT1 and pre-dose, negative = up-regulation
Method: as §3, §4, §5, §6, §7, §8, §9, §1, §2

S100A12 [3] = assay: as above; details: individual patients, within 98 and 168 h after first dose, relative to HPRT1 and pre-dose, negative = up-regulation
Method: as §3, §4, §5, §6, §7, §8, §9, §1, §2

VIM = assay: as above; details: individual patients, within 98 and 168 h after first dose, relative to HPRT1 and pre-dose, negative = up-regulation
Method: as §3, §4, §5, §6, §7, §8, §9, §1, §2

ANXA2 = assay: as above; details: individual patients, within 98 and 168 h after first dose, relative to HPRT1 and pre-dose, negative = up-regulation
Method: as §3, §4, §5, §6, §7, §8, §9, §1, §2

LYZ = assay: as above; details: individual patients, within 98 and 168 h after first dose, relative to HPRT1 and pre-dose, negative = up-regulation
Method: as §3, §4, §5, §6, §7, §8, §9, §1, §2

GPR65 [4] = assay: as above; details: individual patients, within 98 and 168 h after first dose, relative to HPRT1 and pre-dose, negative = up-regulation
Method: as §3, §4, §5, §6, §7, §8, §9, §1, §2

VCAN = assay: as above; details: individual patients, within 98 and 168 h after first dose, relative to HPRT1 and pre-dose, negative = up-regulation
Method: as §3, §4, §5, §6, §7, §8, §9, §1, §2

CD86 = assay: as above; details: individual patients, within 98 and 168 h after first dose, relative to HPRT1 and pre-dose, negative = up-regulation
Method: as §3, §4, §5, §6, §7, §8, §9, §1, §2

ITGAM = assay: as above; details: individual patients, within 98 and 168 h after first dose, relative to HPRT1 and pre-dose, negative = up-regulation
Method: as §3, §4, §5, §6, §7, §8, §9, §1, §2

GPR65 [5] = assay: as above; details: individual patients
[6] = peripheral blood and/or bone marrow, extension cohort of 14 patients, all four FAB subtypes
[7] = within 602 and 768 h after the first administration
[8] = within first 24 h after the first administration
[9] = patients showing both blast morphological differentiation and a decrease in blast cells, particularly M4/M5
[10] = patients showing no morphological differentiation and/or no effect or increase in blast cells

## N[C@H]1CC[C@H](N[C@@H]2C[C@H]2c2ccccc2)CC1 [ORY-1001, (trans)-N1-((1R,2S)-2-phenylcyclopropyl)cyclohexane-1,4-diamine]
Blast cells; individual patients, peripheral blood, variation of blast % between pre- and post-treatment (day 7 to 29), 140 microgram/m2/day oral
  % Blast variation (peripheral blood): ↓ −32% (peripheral blood) and ↓ −55% (peripheral blood) ^e and =(peripheral blood) and ↓ −55% and =
Blast cells; [6]
  patients with decrease in blast cells: 6/14
  patients with morphologic blast differentiation: 5/14
S100A12 [1]; [7]
  S100A12 Day 26 maximum response: −7.1 ΔΔCp and −2.8 ΔΔCp
S100A12 [1]; [8]
  S100A12 Day 1 maximum response: −2.1 ΔΔCp and −0.4 ΔΔCp
S100A12 and VCAN
  S100A12 and VCAN exacerbated up-regulation (fold): 18 to 550 fold
  S100A12 and VCAN exacerbated up-regulation (ΔΔCp): −4.2 to −9.1 ΔΔCp
[2]; [9]
  up-regulation of the gene markers (fold): 1.3 to 550 fold
  up-regulation of the gene markers (ΔΔCp): −0.4 to −9.1 ΔΔCp
[2]; [10]
  down-regulation of some of the genes (fold change): 0.6 to 0.05 fold
  down-regulation of some of the genes (ΔΔCp): 0.8 to 4.4 ΔΔCp
CAMSAP2
  Maximum response (ΔΔCp) on day 5, CAMSAP2: −2.8 ΔΔCp and −1.9 ΔΔCp and 1.2 ΔΔCp and 3.1 ΔΔCp and 1.6 ΔΔCp and −3.7 ΔΔCp and −4.3 ΔΔCp and −2.5 ΔΔCp and −2.3 ΔΔCp and −3.0 ΔΔCp and −2.9 ΔΔCp and −1.4 ΔΔCp
CTSG
  Maximum response (ΔΔCp) on day 5, CTSG: 2.3 ΔΔCp and 3.9 ΔΔCp and 3.3 ΔΔCp and 1.8 ΔΔCp and 2.2 ΔΔCp and −1.8 ΔΔCp and 7.6 ΔΔCp and −3.6 ΔΔCp and −1.7 ΔΔCp and −2.5 ΔΔCp and −0.7 ΔΔCp
Ly96
  Maximum response (ΔΔCp) on day 5, Ly96: −1.6 ΔΔCp and −2.9 ΔΔCp and 2.3 ΔΔCp and −3.3 ΔΔCp and 3.0 ΔΔCp and −4.3 ΔΔCp and −3.1 ΔΔCp and −4.8 ΔΔCp and 2.4 ΔΔCp and −3.2 ΔΔCp and −5.1 ΔΔCp and −4.1 ΔΔCp and −1.5 ΔΔCp
S100A12 [3]
  Maximum response (ΔΔCp) on day 5, S100A12: −4.5 ΔΔCp and −1.7 ΔΔCp and 1.7 ΔΔCp and 1.3 ΔΔCp and 2.7 ΔΔCp and −5.0 ΔΔCp and 3.0 ΔΔCp and 0.8 ΔΔCp and 2.4 ΔΔCp and 2.0 ΔΔCp and 2.1 ΔΔCp and 3.9 ΔΔCp and −2.1 ΔΔCp
VIM
  Maximum response (ΔΔCp) on day 5, VIM: −1.2 ΔΔCp and −1.3 ΔΔCp and −0.5 ΔΔCp and 2.2 ΔΔCp and 1.7 ΔΔCp and −2.4 ΔΔCp and −3.4 ΔΔCp and −2.2 ΔΔCp and −0.4 ΔΔCp and 1.3 ΔΔCp and −0.6 ΔΔCp
ANXA2
  Maximum response (ΔΔCp) on day 5, ANXA2: 2.0 ΔΔCp and −1.1 ΔΔCp and −2.6 ΔΔCp and 1.9 ΔΔCp and −1.9 ΔΔCp and −2.0 ΔΔCp and −3.8 ΔΔCp and −1.6 ΔΔCp and −1.4 ΔΔCp and 3.2 ΔΔCp
LYZ
  Maximum response (ΔΔCp) on day 5, LYZ: 2.9 ΔΔCp and 3.2 ΔΔCp and −1.2 ΔΔCp and 1.7 ΔΔCp and −2.3 ΔΔCp and 2.5 ΔΔCp and −2.2 ΔΔCp and −3.9 ΔΔCp and −0.6 ΔΔCp and 2.4 ΔΔCp and 1.2 ΔΔCp
GPR65 [4]
  Maximum response (ΔΔCp) on day 5, GPR65: −1.8 ΔΔCp and −1.4 ΔΔCp and −1.3 ΔΔCp and −3.8 ΔΔCp and 3.1 ΔΔCp and −0.9 ΔΔCp and 2.3 ΔΔCp and −4.8 ΔΔCp and −3.0 ΔΔCp and −2.3 ΔΔCp and 4.4 ΔΔCp and −1.5 ΔΔCp
VCAN
  Maximum response (ΔΔCp) on day 5, VCAN: 2.2 ΔΔCp and 2.0 ΔΔCp and −0.8 ΔΔCp and −9.1 ΔΔCp and 1.8 ΔΔCp and 3.4 ΔΔCp and −2.2 ΔΔCp and −2.1 ΔΔCp and −4.2 ΔΔCp and −1.2 ΔΔCp and 1.6 ΔΔCp and 1.2 ΔΔCp
CD86
  Maximum response (ΔΔCp) on day 5, CD86: −1.8 ΔΔCp and 2.2 ΔΔCp and 2.5 ΔΔCp and −2.9 ΔΔCp and −3.0 ΔΔCp and −2.0 ΔΔCp and −3.3 ΔΔCp and 0.8 ΔΔCp and −4.4 ΔΔCp and −2.5 ΔΔCp and −2.8 ΔΔCp and 1.3 ΔΔCp
ITGAM
  Maximum response (ΔΔCp) on day 5, ITGAM: 1.7 ΔΔCp and 1.6 ΔΔCp and 2.1 ΔΔCp and −2.3 ΔΔCp and 3.0 ΔΔCp and 3.1 ΔΔCp and −1.3 ΔΔCp and 3.2 ΔΔCp and −3.0 ΔΔCp and −3.7 ΔΔCp and −2.8 ΔΔCp and 1.8 ΔΔCp
GPR65 [5]; [7]
  GPR65 Day 26 maximum response: −3.2 ΔΔCp and −4.8 ΔΔCp
GPR65 [5]; [8]
  GPR65 Day 1 maximum response: 2.2 ΔΔCp and −1.1 ΔΔCp

Source: US20190256930A1, “BIOMARKERS FOR DETERMINING RESPONSIVENESS TO LSD1 INHIBITORS” (ORYZON GENOMICS, S.A., priority 2016, published 2019)
